Experimental data: article PMC9090415, “Discovery of small molecule inhibitors of Plasmodium falciparum apicoplast DNA polymerase” (Journal of Enzyme Inhibition and Medicinal Chemistry, 2022)

Biological target: P. falciparum apicoplast DNA polymerase (Pf-apPOL) (Plasmodium falciparum, UniProt Q8ILY1)
Experiment: Fluorescence-based high-throughput DNA polymerase assay (molecular beacon), primary screen and dose-response;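 for % inhibition ApPOL 90': test concentration in µM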;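 for % inhibition apPOL 180': test concentration in µM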
Type: biochemical
In short: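 Single-point screening used 10 µM compound with 20 nM polymerase, 20 nM hairpin substrate and 6 µM dNTPs for 90 min at 25 °C. Confirmatory titrations (2.5–80 µM) followed fluorescence at three times, and IC50 was derived from a fit including a cooperativity term n.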

Sequence of P. falciparum apicoplast DNA polymerase (Pf-apPOL) (Q8ILY1 entry or part of it): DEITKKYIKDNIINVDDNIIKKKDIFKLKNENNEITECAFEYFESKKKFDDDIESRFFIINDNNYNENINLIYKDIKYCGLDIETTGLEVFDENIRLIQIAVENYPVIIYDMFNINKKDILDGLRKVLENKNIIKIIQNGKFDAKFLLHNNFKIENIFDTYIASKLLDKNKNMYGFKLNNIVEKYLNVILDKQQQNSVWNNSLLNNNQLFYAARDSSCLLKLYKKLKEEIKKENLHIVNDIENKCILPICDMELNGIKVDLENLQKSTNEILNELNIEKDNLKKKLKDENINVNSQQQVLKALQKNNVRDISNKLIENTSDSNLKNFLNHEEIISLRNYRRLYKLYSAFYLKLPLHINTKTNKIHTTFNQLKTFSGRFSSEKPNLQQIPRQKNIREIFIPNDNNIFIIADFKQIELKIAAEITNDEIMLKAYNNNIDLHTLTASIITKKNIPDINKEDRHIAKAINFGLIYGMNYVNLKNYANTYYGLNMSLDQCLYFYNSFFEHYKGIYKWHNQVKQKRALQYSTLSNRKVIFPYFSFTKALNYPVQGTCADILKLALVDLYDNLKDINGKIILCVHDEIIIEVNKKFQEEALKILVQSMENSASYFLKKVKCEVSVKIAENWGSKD

COc1cc(/C=C2\S/C(=N/C(C)=O)NC2=O)cc(Br)c1OCC(=O)O [KU0057841]
DNA Pol ('DNA Pol'; screening value, unit not given; 90 min, 10 µM): 27 | % inhibition Apo pol 10' (DRC-1; 10'; concentration 2.5): 4.866% | % inhibition Apo pol 10' (DRC-1; 10'; concentration 5): 4.738% | % inhibition Apo pol 10' (DRC-1; 10'; concentration 10): 17.12% | % inhibition Apo pol 10' (DRC-1; 10'; concentration 20): 35.9073% | % inhibition Apo pol 10' (DRC-1; 10'; concentration 40): 63.4189% | % inhibition Apo pol 10' (DRC-1; 10'; concentration 80): 83.5237% | % inhibition Apol 90' (DRC-1; 90'; concentration 2.5): 3.601% | % inhibition Apol 90' (DRC-1; 90'; concentration 5): -2.326% | % inhibition Apol 90' (DRC-1; 90'; concentration 10): 5.395% | % inhibition Apol 90' (DRC-1; 90'; concentration 20): 16.7076% | % inhibition Apol 90' (DRC-1; 90'; concentration 40): 36.5505% | % inhibition Apol 90' (DRC-1; 90'; concentration 80): 62.7524% | % inhibition apPOL 180' (DRC-1; 180'; concentration 2.5): 1.284% | % inhibition apPOL 180' (DRC-1; 180'; concentration 5): -7.5244% | % inhibition apPOL 180' (DRC-1; 180'; concentration 10): -2.004% | % inhibition apPOL 180' (DRC-1; 180'; concentration 20): 5.338% | % inhibition apPOL 180' (DRC-1; 180'; concentration 40): 19.6206% | % inhibition apPOL 180' (DRC-1; 180'; concentration 80): 44.2464% | % inhibition Apo pol 5' (DRC-2, 5', concentration 2.5): 2.71% | % inhibition Apo pol 5' (DRC-2, 5', concentration 5): 4.4% | % inhibition Apo pol 5' (DRC-2, 5', concentration 10): 17% | % inhibition Apo pol 5' (DRC-2, 5', concentration 20): 29% | % inhibition Apo pol 5' (DRC-2, 5', concentration 40): 52% | % inhibition Apo pol 5' (DRC-2, 5', concentration 80): 60% | % inhibition Apol 40' (DRC-2, 40', concentration 2.5): 1.51% | % inhibition Apol 40' (DRC-2, 40', concentration 5): 3.29% | % inhibition Apol 40' (DRC-2, 40', concentration 10): 13% | % inhibition Apol 40' (DRC-2, 40', concentration 20): 24% | % inhibition Apol 40' (DRC-2, 40', concentration 40): 47% | % inhibition Apol 40' (DRC-2, 40', concentration 80): 64% | % inhibition ApPOL 90' (DRC-2, 90', concentration 2.5): 1.23% | % inhibition ApPOL 90' (DRC-2, 90', concentration 5): 2.28% | % inhibition ApPOL 90' (DRC-2, 90', concentration 10): 9.51% | % inhibition ApPOL 90' (DRC-2, 90', concentration 20): 20% | % inhibition ApPOL 90' (DRC-2, 90', concentration 40): 41% | % inhibition ApPOL 90' (DRC-2, 90', concentration 80): 60% | % inhibition apPOL 180' (DRC-2, 180', concentration 2.5): 1.62% | % inhibition apPOL 180' (DRC-2, 180', concentration 5): -1.41% | % inhibition apPOL 180' (DRC-2, 180', concentration 10): 4% | % inhibition apPOL 180' (DRC-2, 180', concentration 20): 14% | % inhibition apPOL 180' (DRC-2, 180', concentration 40): 28% | % inhibition apPOL 180' (DRC-2, 180', concentration 80): 49% | % inhibition Apo pol 5' (conc 80 (unit not given); 5'; DRC-2): 60% | % inhibition ApPOL 90' (conc 80 (unit not given); 90'; DRC-2): 60% | DNA Pol (primary screen hit value, DNA Pol (186 hits); 90 min, 10 µM): 27

O=C(O)C(=O)Nc1nc(-c2ccc3c(c2)OCCO3)cs1 [Molecule 82, OC(=O)C(=O)Nc1scc(n1)c1ccc2c(c1)OCCO2]
DNA Pol (186 hits, value of the hit list (primary screen); unit not given; 90 min, 10 µM): 43 | % inhibition Apo pol 10' (DRC-1; 10'; concentration 2.5): 23.4738% | % inhibition Apo pol 10' (DRC-1; 10'; concentration 5): 27.4589% | % inhibition Apo pol 10' (DRC-1; 10'; concentration 10): 36.2592% | % inhibition Apo pol 10' (DRC-1; 10'; concentration 20): 39.5068% | % inhibition Apo pol 10' (DRC-1; 10'; concentration 40): 47.7699% | % inhibition Apo pol 10' (DRC-1; 10'; concentration 80): 63.5129% | % inhibition Apol 90' (DRC-1; 90'; concentration 2.5): 8.772% | % inhibition Apol 90' (DRC-1; 90'; concentration 5): 11.5991% | % inhibition Apol 90' (DRC-1; 90'; concentration 10): 21.2379% | % inhibition Apol 90' (DRC-1; 90'; concentration 20): 24.9603% | % inhibition Apol 90' (DRC-1; 90'; concentration 40): 33.8146% | % inhibition Apol 90' (DRC-1; 90'; concentration 80): 46.367% | % inhibition apPOL 180' (DRC-1; 180'; concentration 2.5): 0.4032% | % inhibition apPOL 180' (DRC-1; 180'; concentration 5): 2.14% | % inhibition apPOL 180' (DRC-1; 180'; concentration 10): 10.4775% | % inhibition apPOL 180' (DRC-1; 180'; concentration 20): 13.4628% | % inhibition apPOL 180' (DRC-1; 180'; concentration 40): 21.1866% | % inhibition apPOL 180' (DRC-1; 180'; concentration 80): 32.4786% | % inhibition Apo pol 5' (DRC-2, 5', concentration 2.5): 23% | % inhibition Apo pol 5' (DRC-2, 5', concentration 5): 17% | % inhibition Apo pol 5' (DRC-2, 5', concentration 10): 25% | % inhibition Apo pol 5' (DRC-2, 5', concentration 20): 30% | % inhibition Apo pol 5' (DRC-2, 5', concentration 40): 34% | % inhibition Apo pol 5' (DRC-2, 5', concentration 80): 46% | % inhibition Apol 40' (DRC-2, 40', concentration 2.5): 13% | % inhibition Apol 40' (DRC-2, 40', concentration 5): 15% | % inhibition Apol 40' (DRC-2, 40', concentration 10): 24% | % inhibition Apol 40' (DRC-2, 40', concentration 20): 28% | % inhibition Apol 40' (DRC-2, 40', concentration 40): 37% | % inhibition Apol 40' (DRC-2, 40', concentration 80): 46% | % inhibition ApPOL 90' (DRC-2, 90', concentration 2.5): 8% | % inhibition ApPOL 90' (DRC-2, 90', concentration 5): 14% | % inhibition ApPOL 90' (DRC-2, 90', concentration 10): 23% | % inhibition ApPOL 90' (DRC-2, 90', concentration 20): 26% | % inhibition ApPOL 90' (DRC-2, 90', concentration 40): 34% | % inhibition ApPOL 90' (DRC-2, 90', concentration 80): 43% | % inhibition apPOL 180' (DRC-2, 180', concentration 2.5): 0.181% | % inhibition apPOL 180' (DRC-2, 180', concentration 5): 9% | % inhibition apPOL 180' (DRC-2, 180', concentration 10): 15% | % inhibition apPOL 180' (DRC-2, 180', concentration 20): 18% | % inhibition apPOL 180' (DRC-2, 180', concentration 40): 25% | % inhibition apPOL 180' (DRC-2, 180', concentration 80): 34% | % inhibition Apo pol 5' (DRC-2; 5'; concentration 2.5): 23% | % inhibition Apo pol 5' (DRC-2; 5'; concentration 10): 25% | % inhibition Apo pol 5' (DRC-2; 5'; concentration 40): 34% | % inhibition Apo pol 5' (DRC-2; 5'; concentration 80): 46% | % inhibition Apol 40' (DRC-2; 40'; concentration 5): 15% | % inhibition Apol 40' (DRC-2; 40'; concentration 80): 46% | % inhibition ApPOL 90' (DRC-2; 90'; concentration 10): 23% | % inhibition ApPOL 90' (DRC-2; 90'; concentration 40): 34% | % inhibition apPOL 180' (DRC-2; 180'; concentration 10): 15% | % inhibition apPOL 180' (DRC-2; 180'; concentration 40): 25% | % inhibition apPOL 180' (DRC-2; 180'; concentration 80): 34% | DNA Pol (primary screen value, 'DNA Pol' only; 90 min, 10 µM): 43
